“Also recorded” adds a separate entry of the source. Like-named read-outs stand apart in the source and are kept apart here.

Results on six compounds are retold here after patent US8591892B2, “FTY720 increases CD74 expression and sensitizes cancer cells to anti-CD74 antibody-mediated cell death” (The Ohio State University, priority 2011, dated 2013).

For series [1], the system named is MCL cell lines (Jeko-1, Mino, UPN-1, Z-138). Put plainly: Immunoblot for LC3-I/LC3-II (autophagic flux). The series is classed as cell-based, human. From the text: (§1) FIG. 1. […] Actin was used as loading control. […] Actin was used as loading control.
In general terms: A western blot detects proteins with antibodies after separation by electrophoresis.

For series [2] the test system is unchanged. Put plainly: Confocal microscopy of total cellular LC3. The series is classed as cell-based, human.
Series [3] shares this test system. Put plainly: Immunoblot for p62. Format: cell-based, human. Conditions: UPN-1 and Z-138 cells, 24 hours.
Description: as §1

For series [4], the system named is Jeko-1 and Mino cell lines. Put plainly: Transmission electron microscopy of ultrastructural changes. The series is classed as cell-based, human. The settings on record: Jeko and Mino cells; chloroquine 40 μM, FTY720 10 μM.
Description: Monolayer cells were grown in chamber slides in medium containing chloroquine (40 μM) or FTY720 (10 μM) for 12 hours. Prior to processing, the cells were fixed for 30 min in 2.5% glutaraldehyde in 0.1 M phosphate buffer pH 7.4. […] Images were obtained with a PEI TECHNAI™ G2 Spirit Transmission Electron Microscope.
We next examined ultrastructural morphologic changes in Jeko-1 and Mino cell lines treated with FTY720 using TEM.
The subject of another series is Jeko-1 and Mino cells. Put plainly: Acridine orange staining, flow cytometry (lysosomal membrane permeability). Conditions: 8 hours, vs untreated control. The series is classed as cell-based, human.
Series [5] relates to surface CD74 on Jeko-1 and Mino cells. Put plainly: CD74-FITC staining and flow cytometry (CD74 MFI). Format: cell-based, human. The settings on record: 8 and 24 hours, vs untreated control or rapamycin. Background: In flow cytometry, cells or beads pass a laser one at a time.
Description: (B) CD74 MFI of MCL cells treated with FTY720, chloroquine or rapamycin at the indicated concentrations after 8 and 24 hours. […] P values are calculated comparing FTY720, chloroquine and rapamycin treatment to the untreated control.
MCL cell lines were treated with FTY720, chloroquine (SIGMA, St Louis, Mo.) or rapamycin (CALBIOCHEM, San Diego, Calif.) for 8 and 24 hours and CD74 mean fluorescence intensity (MFI) was determined relative to a specific isotype control. After treatment, cells (1×10^6) were washed in phosphate-buffered saline (PBS), stained with CD74-FITC (BD BIOSCIENCES, San Jose, Calif.) for 15 minutes at 4° C., then rinsed in PBS and analyzed by flow cytometry (EPICS-XL™; BECKMAN COULTER, Fullerton, Calif.). A total of 10,000 events were collected and analyzed using Windows Multiple Document Interface for Flow Cytometry (WinMDI, Scripps Research Institute, San Diego, Calif.).
To determine the influence of FTY720 treatment on CD74 surface levels, Jeko-1 and Mino cells were incubated with FTY720, chloroquine or rapamycin for 8 and 24 hours. CD74 MFI values were determined by CD74-FITC staining and flow cytometry.
Series [6] deals with DDD of the RII form of PKA (RIIα dimers) (Homo sapiens, UniProt P13861). The settings on record: read-out: binding constant for DDD; cited from earlier work.
Chain of DDD of the RII form of PKA (RIIα dimers) (P13861 whole entry, canonical isoform): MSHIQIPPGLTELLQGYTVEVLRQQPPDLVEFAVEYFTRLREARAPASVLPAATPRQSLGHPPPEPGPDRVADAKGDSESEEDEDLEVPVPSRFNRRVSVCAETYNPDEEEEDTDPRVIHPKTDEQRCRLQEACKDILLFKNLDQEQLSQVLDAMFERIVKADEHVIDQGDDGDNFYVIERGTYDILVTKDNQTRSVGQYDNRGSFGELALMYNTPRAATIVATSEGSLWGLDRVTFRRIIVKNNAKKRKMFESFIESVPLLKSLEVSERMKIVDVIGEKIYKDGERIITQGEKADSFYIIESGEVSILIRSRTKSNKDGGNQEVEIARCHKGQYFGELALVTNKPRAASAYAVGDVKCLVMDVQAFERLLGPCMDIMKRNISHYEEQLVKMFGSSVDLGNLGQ
Series [7] relates to RII isoform of PKA compared with the RI isoform. Conditions: cited from earlier work.
For series [8], the system named is CD74 in Jeko-1, Mino, UPN-1 and Z-138 cells. Put plainly: Confocal microscopy of total CD74 with rhodamine-conjugated milatuzumab. Format: cell-based, human. The settings on record: Jeko-1 and Mino cells, non-immobilized, 5 μg/ml.
Description: Cells were stained with an anti-CD74 antibody (FITC conjugated and CD74 MFI was measured by flow cytometry. Representative histograms summarizing the MFI of untreated and treated Jeko-1, Mino, UPN-1 and Z-138 cells are shown. (C) The amount of total cellular CD74 was determined by confocal microscopy. Jeko-1, Mino, UPN-1 and Z-138 cells were treated with FTY720 at the indicated doses, chloroquine (40 μM), rapamycin (10 μM) or the combination of FTY720 and chloroquine, for 4, 8 and 24 hours. CD74 fluorescence intensity was measured in 4 microscopic fields and integrated intensity was averaged relative to the number of cells per field (˜180-220 cells per condition).
MCL cells for confocal fluorescence microscopy were fixed and stained as previously described (Alinari et al., 2011, Blood 117:4530-41). Briefly, after exposure to drugs, cells were made adherent on a microscope slide by centrifugation. Immediately after cytospin, cells were fixed in cold acetone for two minutes. For CD74 immunofluorescence, the cells were incubated with rhodamine-conjugated milatuzumab. […] Nuclei were stained blue with DAPI (Vector laboratories, Burlingame, Calif.). […] For quantification, 4 microscopic fields per slide were analyzed. Nuclei count was performed using an edge constrained marker-controlled watershed for iterative fluorescence microscopic cell image splitting.
For a further series, the system named is Aspc-1. Put plainly: Flow cytometry of CD74, HLA-DR, CEACAM5 with directly labeled MAbs, with and without IFN-γ. The series is classed as cell-based. The procedure:
(§2) Expression of CD74, HLA-DR, and carcinoembryonic antigen (CEACAM5) was determined in untreated cells and cells exposed to 200 U of IFN-γ for 48 h by flow cytometry. Cells were stained with directly labeled MAbs in comparison to a directly labeled human IgG control. Antibodies were labeled using ALEXA FLUOR® 488 (Invitrogen, Carlsbad, Calif.). For determination of cytoplasmic antigen expression, cells were permeabilized prior to staining using the BD CYTOFIX/CYTOPERM™ kit (BD Biosciences, San Jose, Calif.).

A further series deals with BxPC-3. The series is described as above. The series is classed as cell-based. The procedure:
as §2

The next series deals with CAG. The description is as above. Format: cell-based. The procedure:
as §2

A further series concerns Capan-1. Described as above. The series is classed as cell-based. The procedure:
as §2

For a further series, the system named is FSCCL. The description is as above. Format: cell-based. The procedure: as §2
The next series has as its system HT29. Described as above. The series is classed as cell-based. As for the experimental part:
as §2

The test system of the next series is KMS11. The description is as above. Format: cell-based. As for the experimental part:
as §2

The test system of a further series is LS174T. Described as above. The series is classed as cell-based. The procedure: as §2
The next series has as its system Lovo. Described as above. The series is classed as cell-based. As for the experimental part: as §2
Another series relates to Moser. The description is as above. Format: cell-based. As for the experimental part: as §2
The test system of the next series is Panc-1. The description is as above. Format: cell-based. As for the experimental part: as §2
The next series relates to RL. Described as above. Format: cell-based. As for the experimental part:
as §2

For another series, the system named is TU118. The description is as above. Format: cell-based. As for the experimental part: as §2
For a further series, the system named is U118. Described as above. Format: cell-based. The procedure:
as §2

The subject of the next series is U87. The description is as above. Format: cell-based. As for the experimental part: as §2
Another series concerns MCL cell lines. Put plainly: Cytotoxicity of OSU-2S. The series is classed as cell-based.

For the compound `CCN(CC)CCCC(C)Nc1ccnc2cc(Cl)ccc12` (stereo not drawn) [chloroquine], in series [1], the LC3-II levels result is on record as “significant increase in LC3-II levels; also recorded: increased levels of LC3-II”. The LC3 fluorescence intensity result in [2] is reported as “statistically significant increase in LC3 fluorescence intensity”. Moreover, the p62 levels result in series [3] was “significant increase of p62 levels”. The “ultrastructural morphologic changes (TEM)” value in series [4] is “increased accumulation of autophagosomes”. In addition, the “acridine orange green fluorescence (FL1)” value in the series on Jeko-1 and Mino cells is “slight increase of green fluorescence”. In series [5], the “CD74 MFI (surface)” value is “slight increase of CD74 MFI”.

As to QIEYLAKQIVDNAIQQA [AKAP-IS], in [6], the Kd is 0.4 nM.

Regarding QIEYVAKQIVDYAIHQA [SuperAKAP-IS], the “selectivity for RII over RI isoform of PKA” value in series [7] is “five order of magnitude higher selectivity”.

For the compound “rhodamine-conjugated milatuzumab: fluorescence labeled milatuzumab made with NHS-rhodamine”, in series [8], the “internalization of CD74” value is on record as “rapid internalization of CD74”.

For the compound “Labetuzumab: anti-CEA antibody, directly labeled”, the “% change of cell surface expression with IFNγ” value with Aspc-1 (Aspc-1) was 26.3%; in the series on BxPC-3 (BxPC-3) it was 25.6%; in the series with CAG (CAG), 3.0%; with Capan-1 (Capan-1), −15.1%; with FSCCL (FSCCL) it was 7.6%; in the series with HT29 (HT29) it was 213.5%. Moreover, the “% change of cell surface expression with IFNγ” value in the series on KMS11 (KMS11) was 7.1%; in the series on LS174T (LS174T) it was 167.9%; in the series on Lovo (Lovo), 48.6%; with Moser (Moser), 20.9%; in the series on Panc-1 (Panc-1) it was 6.3%; in the series on RL (RL), 17.3%. Further, the results for the “% change of cell surface expression with IFNγ” value in the series with TU118 (TU118), in the series with U118 (U118) and in the series with U87 (U87) were 13.0%, 2.4% and 23.8%, respectively. Moreover, the “% change of cytoplasmic expression with IFNγ” value was found to be 53.2% with Aspc-1 (Aspc-1); 52.7% with BxPC-3 (BxPC-3); 27.4% in the series on CAG (CAG); 8.7% with Capan-1 (Capan-1); 100.7% in the series with FSCCL (FSCCL); 122.7% in the series with HT29 (HT29). In addition, the “% change of cytoplasmic expression with IFNγ” value with KMS11 (KMS11) is on record as −11.4%; with LS174T (LS174T), 195.9%; in the series on Lovo (Lovo), 52.4%; with Moser (Moser), 41.8%; in the series on Panc-1 (Panc-1), 161.2%; in the series on RL (RL), 37.9%. Further, the “% change of cytoplasmic expression with IFNγ” value in the series on TU118 (TU118) is recorded as 115.5%; in the series with U118 (U118), 78.2%; with U87 (U87) it was 79.0%. Besides, the “Cell surface expression (staining with directly labeled MAb)” value in the series on Aspc-1 (Aspc-1 + IFNγ 200 U, 48 h) is listed as 66.8; in the series with Aspc-1 (Aspc-1, without IFN-γ) it was 52.9; in the series with BxPC-3 (BxPC-3 + IFNγ 200 U, 48 h) it was 7.0; in the series on BxPC-3 (BxPC-3, without IFN-γ), 5.6; in the series with CAG (CAG + IFNγ 200 U, 48 h), 5.2; in the series with CAG (CAG, without IFN-γ), 5.0. Moreover, the “Cell surface expression (staining with directly labeled MAb)” value worked out at 48.8 in the series with Capan-1 (Capan + IFNγ 200 U, 48 h); 57.5 in the series with Capan-1 (Capan-1, without IFN-γ); 2.8 with FSCCL (FSCCL + IFNγ 200 U, 48 h); 2.6 with FSCCL (FSCCL, without IFN-γ); 34.9 in the series on HT29 (HT29 + IFNγ 200 U, 48 h); 11.1 in the series with HT29 (HT29, without IFN-γ). For the same compound, the “Cell surface expression (staining with directly labeled MAb)” value worked out at 2.3 with KMS11 (KMS11 + IFNγ 200 U, 48 h); 2.1 with KMS11 (KMS11, without IFN-γ); 163.7 with LS174T (LS174T + IFNγ 200 U, 48 h); 61.1 with LS174T (LS174T, without IFN-γ); 84.4 with Lovo (Lovo + IFNγ 200 U, 48 h); 56.8 with Lovo (Lovo, without IFN-γ). For the same compound, the “Cell surface expression (staining with directly labeled MAb)” value with Moser (Moser + IFNγ 200 U, 48 h) is listed as 77.2; in the series on Moser (Moser, without IFN-γ) it was 63.8; in the series with Panc-1 (Panc-1 + IFNγ 200 U, 48 h) it was 4.4; in the series on Panc-1 (Panc-1, without IFN-γ), 4.1; with RL (RL + IFNγ 200 U, 48 h), 2.9; in the series on RL (RL, without IFN-γ) it was 2.4. Further, the “Cell surface expression (staining with directly labeled MAb)” value came out at 5.29 with TU118 (TU118 + IFNγ 200 U, 48 h); 4.68 in the series on TU118 (TU118, without IFN-γ); 5.6 in the series on U118 (U118 + IFNγ 200 U, 48 h); 5.5 in the series with U118 (U118, without IFN-γ); 4.5 in the series on U87 (U87 + IFNγ 200 U, 48 h); 3.7 in the series on U87 (U87, without IFN-γ).

For the compound `CCC[C@@](N)(CO)CCc1ccc(OCCCCCC(C)C)cc1` [OSU-2S, (S)-2-amino-2-(4-[(6-methylheptyl)-oxy]phenethyl)pentan-1-ol], the LC3-II levels entry in [1] (Jeko-1, Mino and Z-138 cell lines, 24 hours, Western blotting) is on record as “increased levels of LC3-II”. For the same compound, in the series on MCL cell lines (MCL cell lines), the cytotoxicity entry is on record as “exhibited cytotoxicity”. Also, in the series on MCL cell lines (MCL cell lines and primary cells), the cytotoxic activity result is reported as “significant cytotoxic activity”.
